Measurements: PMC7156458, “Synthetic biology based construction of biological activity-related library of fungal decalin-containing diterpenoid pyrones” (Nature Communications, 2020)

Biological target: Aβ42 (Homo sapiens, UniProt P05067)
Experiment: Th-T (thioflavin-T) assay of Aβ42 aggregation
Assay type: biochemical
Settings: for Th-T fluorescence of Aβ42 with compound, mean of three wells (Fig. 7a source data): concentration 50, unit not given

Aβ42, sequence (P05067 672-713): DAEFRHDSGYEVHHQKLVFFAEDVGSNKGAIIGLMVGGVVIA

C=C1CC[C@@H]2[C@](C)(CC[C@H]3O[C@H](C=C(C)C)C[C@@]23C)[C@@H]1Cc1c(OC)oc(CO)c(C(=O)OC)c1=O [Compound 21]
Th-T fluorescence of Aβ42 with compound, mean of three wells (Fig. 7a source data) (time-course reading M143): 0.5052 | Th-T fluorescence of Aβ42 with compound, mean of three wells (Fig. 7a source data) (time-course reading M144): 0.5053 | Th-T fluorescence of Aβ42 with compound, mean of three wells (Fig. 7a source data) (time-course reading M145): 0.5045 | Th-T fluorescence of Aβ42 (sheet Fig. 7a), mean of three wells (head suffix _10 (concentration 10), reading M63): 0.5289 | Th-T fluorescence of Aβ42 (sheet Fig. 7a), mean of three wells (head suffix _10 (concentration 10), reading M64): 0.6173 | Th-T fluorescence of Aβ42 (sheet Fig. 7a), mean of three wells (head suffix _10 (concentration 10), reading M65): 0.6561 | Th-T fluorescence of Aβ42 (sheet Fig. 7a), mean of three wells (head suffix _10 (concentration 10), reading M66): 0.6931 | Th-T fluorescence of Aβ42 (sheet Fig. 7a), mean of three wells (head suffix _10 (concentration 10), reading M67): 0.7435 | Th-T fluorescence of Aβ42 (sheet Fig. 7a), mean of three wells (head suffix _10 (concentration 10), reading M68): 0.7523 | Th-T fluorescence of Aβ42 (sheet Fig. 7a), mean of three wells (head suffix _10 (concentration 10), reading M69): 0.7892 | Th-T fluorescence of Aβ42 (sheet Fig. 7a), mean of three wells (head suffix _10 (concentration 10), reading M70): 0.7946 | Th-T fluorescence of Aβ42 (sheet Fig. 7a), mean of three wells (head suffix _10 (concentration 10), reading M71): 0.8033 | Th-T fluorescence of Aβ42 (sheet Fig. 7a), mean of three wells (head suffix _10 (concentration 10), reading M72): 0.7933 | Th-T fluorescence of Aβ42 (sheet Fig. 7a), mean of three wells (head suffix _10 (concentration 10), reading M73): 0.8223 | Th-T fluorescence of Aβ42 (sheet Fig. 7a), mean of three wells (head suffix _10 (concentration 10), reading M74): 0.8738 | Th-T fluorescence of Aβ42 (sheet Fig. 7a), mean of three wells (head suffix _10 (concentration 10), reading M75): 0.8711 | Th-T fluorescence of Aβ42 (sheet Fig. 7a), mean of three wells (head suffix _10 (concentration 10), reading M76): 0.921 | Th-T fluorescence of Aβ42 (sheet Fig. 7a), mean of three wells (head suffix _10 (concentration 10), reading M77): 0.9791 | Th-T fluorescence of Aβ42 (sheet Fig. 7a), mean of three wells (head suffix _10 (concentration 10), reading M78): 1.0381 | Th-T fluorescence of Aβ42 (sheet Fig. 7a), mean of three wells (head suffix _10 (concentration 10), reading M79): 1.098 | Th-T fluorescence of Aβ42 (sheet Fig. 7a), mean of three wells (head suffix _10 (concentration 10), reading M80): 1.155 | Th-T fluorescence of Aβ42 (sheet Fig. 7a), mean of three wells (head suffix _10 (concentration 10), reading M81): 1.227 | Th-T fluorescence of Aβ42 (sheet Fig. 7a), mean of three wells (head suffix _10 (concentration 10), reading M82): 1.285 | Th-T fluorescence of Aβ42 (sheet Fig. 7a), mean of three wells (head suffix _10 (concentration 10), reading M83): 1.378 | Th-T fluorescence of Aβ42 (sheet Fig. 7a), mean of three wells (head suffix _10 (concentration 10), reading M84): 1.428 | Th-T fluorescence of Aβ42 (sheet Fig. 7a), mean of three wells (head suffix _20 (concentration 20), reading M63): 0.2431 | Th-T fluorescence of Aβ42 (sheet Fig. 7a), mean of three wells (head suffix _20 (concentration 20), reading M64): 0.2464 | Th-T fluorescence of Aβ42 (sheet Fig. 7a), mean of three wells (head suffix _20 (concentration 20), reading M65): 0.2511 | Th-T fluorescence of Aβ42 (sheet Fig. 7a), mean of three wells (head suffix _20 (concentration 20), reading M66): 0.2535 | Th-T fluorescence of Aβ42 (sheet Fig. 7a), mean of three wells (head suffix _20 (concentration 20), reading M67): 0.2562 | Th-T fluorescence of Aβ42 (sheet Fig. 7a), mean of three wells (head suffix _20 (concentration 20), reading M68): 0.2616 | Th-T fluorescence of Aβ42 (sheet Fig. 7a), mean of three wells (head suffix _20 (concentration 20), reading M69): 0.2677 | Th-T fluorescence of Aβ42 (sheet Fig. 7a), mean of three wells (head suffix _20 (concentration 20), reading M70): 0.2739 | Th-T fluorescence of Aβ42 (sheet Fig. 7a), mean of three wells (head suffix _20 (concentration 20), reading M71): 0.2831 | Th-T fluorescence of Aβ42 (sheet Fig. 7a), mean of three wells (head suffix _20 (concentration 20), reading M72): 0.2882 | Th-T fluorescence of Aβ42 (sheet Fig. 7a), mean of three wells (head suffix _20 (concentration 20), reading M73): 0.2974 | Th-T fluorescence of Aβ42 (sheet Fig. 7a), mean of three wells (head suffix _20 (concentration 20), reading M74): 0.3106 | Th-T fluorescence of Aβ42 (sheet Fig. 7a), mean of three wells (head suffix _20 (concentration 20), reading M75): 0.3227 | Th-T fluorescence of Aβ42 (sheet Fig. 7a), mean of three wells (head suffix _20 (concentration 20), reading M76): 0.3296 | Th-T fluorescence of Aβ42 (sheet Fig. 7a), mean of three wells (head suffix _20 (concentration 20), reading M77): 0.3505 | Th-T fluorescence of Aβ42 (sheet Fig. 7a), mean of three wells (head suffix _20 (concentration 20), reading M78): 0.3679 | Th-T fluorescence of Aβ42 (sheet Fig. 7a), mean of three wells (head suffix _20 (concentration 20), reading M79): 0.3859 | Th-T fluorescence of Aβ42 (sheet Fig. 7a), mean of three wells (head suffix _20 (concentration 20), reading M80): 0.4085 | Th-T fluorescence of Aβ42 (sheet Fig. 7a), mean of three wells (head suffix _20 (concentration 20), reading M81): 0.4348 | Th-T fluorescence of Aβ42 (sheet Fig. 7a), mean of three wells (head suffix _20 (concentration 20), reading M82): 0.4734 | Th-T fluorescence of Aβ42 (sheet Fig. 7a), mean of three wells (head suffix _20 (concentration 20), reading M83): 0.5074 | Th-T fluorescence of Aβ42 (sheet Fig. 7a), mean of three wells (head suffix _20 (concentration 20), reading M84): 0.5384 | Th-T fluorescence of Aβ42 (sheet Fig. 7a), mean of three wells (head suffix _50 (concentration 50), reading M63): 0.2314 | Th-T fluorescence of Aβ42 (sheet Fig. 7a), mean of three wells (head suffix _50 (concentration 50), reading M64): 0.2365 | Th-T fluorescence of Aβ42 (sheet Fig. 7a), mean of three wells (head suffix _50 (concentration 50), reading M65): 0.2406 | Th-T fluorescence of Aβ42 (sheet Fig. 7a), mean of three wells (head suffix _50 (concentration 50), reading M66): 0.2402 | Th-T fluorescence of Aβ42 (sheet Fig. 7a), mean of three wells (head suffix _50 (concentration 50), reading M67): 0.2439 | Th-T fluorescence of Aβ42 (sheet Fig. 7a), mean of three wells (head suffix _50 (concentration 50), reading M68): 0.2485 | Th-T fluorescence of Aβ42 (sheet Fig. 7a), mean of three wells (head suffix _50 (concentration 50), reading M69): 0.2533 | Th-T fluorescence of Aβ42 (sheet Fig. 7a), mean of three wells (head suffix _50 (concentration 50), reading M70): 0.2583 | Th-T fluorescence of Aβ42 (sheet Fig. 7a), mean of three wells (head suffix _50 (concentration 50), reading M71): 0.2613 | Th-T fluorescence of Aβ42 (sheet Fig. 7a), mean of three wells (head suffix _50 (concentration 50), reading M72): 0.2693
